The values below are quoted from earlier work in publication PMC9635817, “In vitro inhibition of acetylcholinesterase activity by yellow field pea (Pisum sativum) protein-derived peptides as revealed by kinetics and molecular docking” (Frontiers in Nutrition, 2022).

The structures appear in SMILES notation.

The test system of this data set is AChE.

On to `COc1cc2c(cc1OC)[C@@H]1[C@H](O)[C@@H](OC)C=C3CCN(C2)[C@H]31` [galanthine], for which the “AChE-inhibitory IC50” value is 1.96 µg/mL.
